Test results as given in ChEMBL document CHEMBL3885881, “DrugMatrix”.

Organism: Rattus norvegicus
Assay: DrugMatrix - Regimen: Daily Repeat
Assay type: toxicity, organism-based, Sprague-Dawley
Parameters: regimen Daily Repeat, gender Male, age 6-8 weeks
Details: in vivo, po, route oral GAVAGE, vehicle .5 % CMC; for ABSOLUTE BASOPHIL / ABSOLUTE EOSINOPHIL / ABSOLUTE LYMPHOCYTE / ABSOLUTE MONOCYTE / ABSOLUTE SEGMENTED NEUTROPHIL / BASOPHIL / EOSINOPHIL / ERYTHROCYTE COUNT / HEMATOCRIT / HEMOGLOBIN / LEUKOCYTE COUNT / LYMPHOCYTE / MEAN CORPUSCULAR HEMOGLOBIN / MEAN CORPUSCULAR HEMOGLOBIN CONCENTRATION / MEAN CORPUSCULAR VOLUME / MONOCYTE / NEUTROPHIL / NUCLEATED RED BLOOD CELLS / PLATELET COUNT: tissue Blood; for ALANINE AMINOTRANSFERASE / ALBUMIN / ALKALINE PHOSPHATASE / ASPARTATE AMINOTRANSFERASE / BLOOD UREA NITROGEN / CARBON DIOXIDE / CHLORIDE / CHOLESTEROL / CREATINE PHOSPHOKINASE / CREATININE / GLUCOSE / LACTATE DEHYDROGENASE / LIPASE / PHOSPHORUS / POTASSIUM / SODIUM / TOTAL BILIRUBIN / TOTAL PROTEIN / URIC ACID: tissue Plasma
[1] = 10 mg/kg, 72 h, dose level Low, time 3 day
[2] = 10 mg/kg, 120 h, dose level Low, time 5 day
[3] = 200 mg/kg, 72 h, dose level High, time 3 day
[4] = 200 mg/kg, 120 h, dose level High, time 5 day

Nc1nc(N)c2nc(-c3ccccc3)c(N)nc2n1
ABSOLUTE BASOPHIL [1]: 0 CELLS/uL | ABSOLUTE EOSINOPHIL [1]: 222 CELLS/uL | ABSOLUTE LYMPHOCYTE [1]: 17071.33 CELLS/uL | ABSOLUTE MONOCYTE [1]: 553.33 CELLS/uL | ABSOLUTE SEGMENTED NEUTROPHIL [1]: 1620 CELLS/uL | BASOPHIL [1]: 0% | EOSINOPHIL [1]: 1% | ERYTHROCYTE COUNT [1]: 5.9 x10E6/uL | HEMATOCRIT [1]: 37.03% | HEMOGLOBIN [1]: 13.67 G/DL | LEUKOCYTE COUNT [1]: 19.47 x10E3/uL | LYMPHOCYTE [1]: 87.33% | MEAN CORPUSCULAR HEMOGLOBIN [1]: 23.17 pg | MEAN CORPUSCULAR HEMOGLOBIN CONCENTRATION [1]: 36.93 G/DL | MEAN CORPUSCULAR VOLUME [1]: 62.7 fL | MONOCYTE [1]: 3% | NEUTROPHIL [1]: 8.67% | NUCLEATED RED BLOOD CELLS [1]: 0 /100WBC | PLATELET COUNT [1]: 1434.33 x10E3/uL | ALANINE AMINOTRANSFERASE [1]: 48.33 u/L | ALBUMIN [1]: 4.3 G/DL | ALKALINE PHOSPHATASE [1]: 469.67 u/L | ASPARTATE AMINOTRANSFERASE [1]: 88 u/L | BLOOD UREA NITROGEN [1]: 15.33 mg/dL | CARBON DIOXIDE [1]: 24 mmol/L | CHLORIDE [1]: 104.67 MEQ/L | CHOLESTEROL [1]: 67.33 mg/dL | CREATINE PHOSPHOKINASE [1]: 281 u/L | CREATININE [1]: 0.21 mg/dL | GLUCOSE [1]: 161.33 mg/dL | LACTATE DEHYDROGENASE [1]: 437.67 u/L | LIPASE [1]: 8.67 u/L | PHOSPHORUS [1]: 13.37 mg/dL | POTASSIUM [1]: 6.69 MEQ/L | SODIUM [1]: 147.13 MEQ/L | TOTAL BILIRUBIN [1]: 0.23 mg/dL | TOTAL PROTEIN [1]: 6.03 G/DL | URIC ACID [1]: 2.37 mg/dL | ABSOLUTE BASOPHIL [2]: 0 CELLS/uL | ABSOLUTE EOSINOPHIL [2]: 142.67 CELLS/uL | ABSOLUTE LYMPHOCYTE [2]: 11218.33 CELLS/uL | ABSOLUTE MONOCYTE [2]: 128 CELLS/uL | ABSOLUTE SEGMENTED NEUTROPHIL [2]: 1311 CELLS/uL | BASOPHIL [2]: 0% | EOSINOPHIL [2]: 1.33% | ERYTHROCYTE COUNT [2]: 5.9 x10E6/uL | HEMATOCRIT [2]: 36.6% | HEMOGLOBIN [2]: 13.67 G/DL | LEUKOCYTE COUNT [2]: 12.8 x10E3/uL | LYMPHOCYTE [2]: 87.67% | MEAN CORPUSCULAR HEMOGLOBIN [2]: 23.17 pg | MEAN CORPUSCULAR HEMOGLOBIN CONCENTRATION [2]: 37.33 G/DL | MEAN CORPUSCULAR VOLUME [2]: 62 fL | MONOCYTE [2]: 1% | NEUTROPHIL [2]: 10% | NUCLEATED RED BLOOD CELLS [2]: 0.33 /100WBC | PLATELET COUNT [2]: 1227.67 x10E3/uL | ALANINE AMINOTRANSFERASE [2]: 45.33 u/L | ALBUMIN [2]: 4.2 G/DL | ALKALINE PHOSPHATASE [2]: 320.33 u/L | ASPARTATE AMINOTRANSFERASE [2]: 83 u/L | BLOOD UREA NITROGEN [2]: 18.67 mg/dL | CARBON DIOXIDE [2]: 26 mmol/L | CHLORIDE [2]: 106.67 MEQ/L | CHOLESTEROL [2]: 68.33 mg/dL | CREATINE PHOSPHOKINASE [2]: 371.67 u/L | CREATININE [2]: 0.19 mg/dL | GLUCOSE [2]: 145 mg/dL | LACTATE DEHYDROGENASE [2]: 432 u/L | LIPASE [2]: 9 u/L | PHOSPHORUS [2]: 11.77 mg/dL | POTASSIUM [2]: 5.68 MEQ/L | SODIUM [2]: 147.3 MEQ/L | TOTAL BILIRUBIN [2]: 0.17 mg/dL | TOTAL PROTEIN [2]: 5.93 G/DL | URIC ACID [2]: 1.3 mg/dL | ABSOLUTE BASOPHIL [3]: 0 CELLS/uL | ABSOLUTE EOSINOPHIL [3]: 51 CELLS/uL | ABSOLUTE LYMPHOCYTE [3]: 12546 CELLS/uL | ABSOLUTE MONOCYTE [3]: 436.67 CELLS/uL | ABSOLUTE SEGMENTED NEUTROPHIL [3]: 1333 CELLS/uL | BASOPHIL [3]: 0% | EOSINOPHIL [3]: 0.33% | ERYTHROCYTE COUNT [3]: 5.38 x10E6/uL | HEMATOCRIT [3]: 33.6% | HEMOGLOBIN [3]: 13.03 G/DL | LEUKOCYTE COUNT [3]: 14.37 x10E3/uL | LYMPHOCYTE [3]: 87.33% | MEAN CORPUSCULAR HEMOGLOBIN [3]: 24.23 pg | MEAN CORPUSCULAR HEMOGLOBIN CONCENTRATION [3]: 38.83 G/DL | MEAN CORPUSCULAR VOLUME [3]: 62.47 fL | MONOCYTE [3]: 3% | NEUTROPHIL [3]: 9.33% | NUCLEATED RED BLOOD CELLS [3]: 0.33 /100WBC | PLATELET COUNT [3]: 1312 x10E3/uL | ALANINE AMINOTRANSFERASE [3]: 57.33 u/L | ALBUMIN [3]: 4.17 G/DL | ALKALINE PHOSPHATASE [3]: 279 u/L | ASPARTATE AMINOTRANSFERASE [3]: 70.67 u/L | BLOOD UREA NITROGEN [3]: 22.33 mg/dL | CARBON DIOXIDE [3]: 27.67 mmol/L | CHLORIDE [3]: 104.67 MEQ/L | CHOLESTEROL [3]: 86.67 mg/dL | CREATINE PHOSPHOKINASE [3]: 220 u/L | CREATININE [3]: 0.24 mg/dL | GLUCOSE [3]: 154 mg/dL | LACTATE DEHYDROGENASE [3]: 170.33 u/L | LIPASE [3]: 9.33 u/L | PHOSPHORUS [3]: 12.93 mg/dL | POTASSIUM [3]: 6.66 MEQ/L | SODIUM [3]: 145.07 MEQ/L | TOTAL BILIRUBIN [3]: 0.17 mg/dL | TOTAL PROTEIN [3]: 5.8 G/DL | URIC ACID [3]: 1.5 mg/dL | ABSOLUTE BASOPHIL [4]: 0 CELLS/uL | ABSOLUTE EOSINOPHIL [4]: 238.67 CELLS/uL | ABSOLUTE LYMPHOCYTE [4]: 14472.33 CELLS/uL | ABSOLUTE MONOCYTE [4]: 270.33 CELLS/uL | ABSOLUTE SEGMENTED NEUTROPHIL [4]: 2185.33 CELLS/uL | BASOPHIL [4]: 0% | EOSINOPHIL [4]: 1.33% | ERYTHROCYTE COUNT [4]: 5.62 x10E6/uL | HEMATOCRIT [4]: 33.9% | HEMOGLOBIN [4]: 13.03 G/DL | LEUKOCYTE COUNT [4]: 17.17 x10E3/uL | LYMPHOCYTE [4]: 84.33% | MEAN CORPUSCULAR HEMOGLOBIN [4]: 23.2 pg | MEAN CORPUSCULAR HEMOGLOBIN CONCENTRATION [4]: 38.43 G/DL | MEAN CORPUSCULAR VOLUME [4]: 60.33 fL | MONOCYTE [4]: 1.67% | NEUTROPHIL [4]: 12.67% | NUCLEATED RED BLOOD CELLS [4]: 0.67 /100WBC | PLATELET COUNT [4]: 1441.67 x10E3/uL | ALANINE AMINOTRANSFERASE [4]: 49.33 u/L | ALBUMIN [4]: 4.13 G/DL | ALKALINE PHOSPHATASE [4]: 284.33 u/L | ASPARTATE AMINOTRANSFERASE [4]: 91.33 u/L | BLOOD UREA NITROGEN [4]: 20 mg/dL | CARBON DIOXIDE [4]: 27 mmol/L | CHLORIDE [4]: 102.67 MEQ/L | CHOLESTEROL [4]: 62.33 mg/dL | CREATINE PHOSPHOKINASE [4]: 540.67 u/L | CREATININE [4]: 0.21 mg/dL | GLUCOSE [4]: 156.67 mg/dL | LACTATE DEHYDROGENASE [4]: 601 u/L | LIPASE [4]: 8.67 u/L | PHOSPHORUS [4]: 13.17 mg/dL | POTASSIUM [4]: 5.78 MEQ/L | SODIUM [4]: 147.03 MEQ/L | TOTAL BILIRUBIN [4]: 0.13 mg/dL | TOTAL PROTEIN [4]: 5.8 G/DL | URIC ACID [4]: 1.77 mg/dL
